Laboratory results published in patent US8138173B2, “Pyrazolo[3,4-C]quinolines, pyrazolo[3,4-C]naphthyridines, analogs thereof, and methods” (3M Innovative Properties Company, priority 2005, dated 2012).
Counter-ions that a name gives are not always drawn.

Structure (SMILES)	melting point [°C]
CCCCc1c2c(nn1-c1ccccc1)c(Cl)nc1ccccc12 [Example 16, 1-Butyl-4-chloro-2-phenyl-2H-pyrazolo[3,4-c]quinoline]	239 to 243
CCCn1nc2c(Cl)nc3ccccc3c2c1C [Example 1, 4-Chloro-1-methyl-2-propyl-2H-pyrazolo[3,4-c]quinoline]	145 to 147
O=c1[nH]c2ccccc2c2c(C(O)CC3CCNCC3)n(-c3ccccc3)nc12 (stereo not shown) [Example 9, 1-(1-Hydroxy-2-piperidin-4-ylethyl)-2-phenyl-2,5-dihydro-4H-pyrazolo[3,4-c]quinolin-4-one]	258 to 261
Cc1c2c(nn1-c1ccccc1)c(=O)[nH]c1ccccc12 [Example 11, 1-Methyl-2-phenyl-2,5-dihydro-4H-pyrazolo[3,4-c]quinolin-4-one]	> 250
O=c1[nH]c2ccccc2c2c(CCN3CCN(Cc4ccccc4)CC3)n(-c3ccccc3)nc12 [Example 24, 1-[2-(4-Benzylpiperazin-1-yl)ethyl]-2-phenyl-2,5-dihydro-4H-pyrazolo[3,4-c]quinolin-4-one]	211 to 212.5
CC(C)(C)OC(=O)N1CCC(CCc2c3c(nn2C(C)(C)C)c(=O)[nH]c2ccccc23)CC1 [Example 25, tert-Butyl 4-[2-(2-tert-butyl-4-oxo-4,5-dihydro-2H-pyrazolo[3,4-c]quinolin-1-yl)ethyl]piperidine-1-carboxylate]	223 to 225
CC(C)(C)n1nc2c(=O)[nH]c3ccccc3c2c1CO [Example 26, 2-tert-Butyl-1-(hydroxymethyl)-2,5-dihydro-4H-pyrazolo[3,4-c]quinolin-4-one]	295 to 297
CCCc1c2c(nn1-c1ccccc1)c(=O)[nH]c1ccccc12 [Example 28, 2-Phenyl-1-propyl-2,5-dihydro-4H-pyrazolo[3,4-c]quinolin-4-one]	> 300
Clc1nc2ccccc2c2c(CCN3CCN(Cc4ccccc4)CC3)n(-c3ccccc3)nc12 [Example 23, 1-[2-(4-Benzylpiperazin-1-yl)ethyl]-4-chloro-2-phenyl-2H-pyrazolo[3,4-c]quinoline]	75 to 77
O=c1[nH]c2ccccc2c2c(C(O)CC3CCCCC3)n(-c3ccccc3)nc12 (stereo not shown) [Example 10, 1-(2-Cyclohexyl-1-hydroxyethyl)-2-phenyl-2,5-dihydro-4H-pyrazolo[3,4-c]quinolin-4-one]	254 to 259
CC(C)Cc1c2c(nn1C)c(O)nc1ccccc12 [Example 27, 1-Isobutyl-2-methyl-2H-pyrazolo[3,4-c]quinolin-4-ol]	> 280
O=C(Cc1c2c(nn1-c1ccccc1)c(=O)[nH]c1ccccc12)N1CCN(Cc2ccccc2)CC1	283 to 285
Cc1c2c(cnc3ccccc32)nn1-c1ccccc1 [Example 13, 1-Methyl-2-phenyl-2H-pyrazolo[3,4-c]quinoline]	128 to 130
CCOC(=O)Cc1c2c(nn1-c1ccccc1)c(=O)[nH]c1ccccc12 [Example 18, Ethyl (4-oxo-2-phenyl-4,5-dihydro-2H-pyrazolo[3,4-c]quinolin-1-yl)acetate]	301 to 303
CC(C)(C)OC(=O)N1CCC(CC(O)c2c3c(nn2-c2ccccc2)c(=O)[nH]c2ccccc23)CC1 (stereo not shown) [Example 8, tert-Butyl 4-[2-hydroxy-2-(4-oxo-2-phenyl-4,5-dihydro-2H-pyrazolo[3,4-c]quinolin-1-yl)ethyl]piperidine-1-carboxylate]	253 to 254

Next, values leading:

melting point [°C]	Structure (SMILES)
233 to 235	CCOC(=O)Cc1c2c(nn1CC)c(=O)[nH]c1ccccc12 [Example 17, Ethyl (2-ethyl-4-oxo-4,5-dihydro-2H-pyrazolo[3,4-c]quinolin-1-yl)acetate]
194	Clc1nc2ccccc2c2c(CCC3CCNCC3)n(-c3ccccc3)nc12 (as salt: HCl) [Example 7, 4-Chloro-2-phenyl-1-(2-piperidin-4-ylethyl)-2H-pyrazolo[3,4-c]quinoline]
294 to 296	CCCn1nc2c(O)nc3ccccc3c2c1CC(C)(C)O [Example 29, 1-(2-Hydroxy-2-methylpropyl)-2-propyl-2H-pyrazolo[3,4-c]quinolin-4-ol]
331 to 334	CCc1c2c(nn1-c1ccccc1)c(=O)[nH]c1ccccc12 [Example 14, 1-Ethyl-2-phenyl-2,5-dihydro-4H-pyrazolo[3,4-c]quinolin-4-one]
219 to 220	CCn1nc2c(OC)nc3ccccc3c2c1CO [Example 5, (2-Ethyl-4-methoxy-2H-pyrazolo[3,4-c]quinolin-1-yl)methanol]
208 to 209	Cc1c2c(nn1-c1ccccc1)c(Cl)nc1ccccc12 [Example 12, 4-Chloro-1-methyl-2-phenyl-2H-pyrazolo[3,4-c]quinoline]
310 to 312	O=c1[nH]c2ccccc2c2c(CCO)n(-c3ccccc3)nc12 [Example 20, 1-(2-Hydroxyethyl)-2-phenyl-2,5-dihydro-4H-pyrazolo[3,4-c]quinolin-4-one]
207 to 209	CCc1c2c(nn1-c1ccccc1)c(Cl)nc1ccccc12 [Example 15, 4-Chloro-1-ethyl-2-phenyl-2H-pyrazolo[3,4-c]quinoline]
250 to 252	O=c1[nH]c2ccccc2c2c(CCC3CCNCC3)n(-c3ccccc3)nc12 [Example 6, 2-Phenyl-1-(2-piperidin-4-ylethyl)-2,5-dihydro-4H-pyrazolo[3,4-c]quinolin-4-one]
210.5 to 211.5	O=C(Cc1c2c(nn1-c1ccccc1)c(Cl)nc1ccccc12)N1CCN(Cc2ccccc2)CC1
